“And” between values parts separate entries of the source, which are not always exact repeats. Identical values can stand only once. “Also recorded” adds a separate entry of the source. Like-named read-outs stand apart in the source and are kept apart here. One block for each molecule: values may come before it.
What was measured:
Type in all cases: cell-based
[1] = system: HIV-1IIIB; experiment: Anti-HIV activity: protection of MT-2 cells infected with HIV-1IIIB (MTT-dye reduction); conditions: Human immunodeficiency virus 1, MT2, 120 h
Experimental: (§1) The following anti-HIV drugs were tested in combination with the L-nucleosides β-L-5-fluoro-2',b 3'-dideoxycytidine [β-L-FddC or L(-)FddC], β-L-5-fluoro-2',3'-dideoxy-2',3'-didehydrocytidine [β-L-Fd4C or L(-)Fd4C], β-L-5-fluoro-2',3'-dideoxy-3'-thiacytidine [L(-)FTC] and β-L-2',3'-dideoxy-3'-thiacytidine [L(-)SddC or 3TC]: 3'-azido-3'deoxythymidine (AZT) as well as the β-D-2',3'-dideoxynucleosides, for example, β-D-2',3'-dideoxycytidine (ddC), β-D-2',3'-dideoxyadenosine, β-D-2',3'-dideoxyinosine (DDI) and β-D-2',3'-didehydro-3'-deoxy-thymidine (D4T). β-L-FddC and β-L-Fd4C was obtained following the method of Lin, et al., J. Med. Chem., 37, no. 6 (1994). L(-)FTC and L(-)SddC were prepared by standard literature procedures. See, for example, Jeong, et al. J. Med. Chem., 36, 181 (1993). AZT was obtained from Sigma Chemical Co., St. Louis, Mo., USA. ddC was obtained from Aldrich Chemical Co., Milwaukke, Wis. USA. DDI and D4T were obtained from Bristol-Myers Co., Wallingford, Conn., USA.
(§2) The above-mentioned drugs were tested using MT-2 cells infected with HIV-1IIIB as described by JW Mellers, et al., Molecular Pharm. 41, 446-451 (1991) with some modification. Briefly, triplicate wells of 96-well plates containing 1×10^4 MT-2 cells were infected with HIV-1IIIB at a multiplicity of infection (MOI) of 0.1 TCID50 per cell (TCID50 - 50% tissue culture infective dose). Serial dilutions of drug were added immediately after infection. Cell viability was quantitated 5 days after infection by the MTT-dye reduction model (Larder, et al. Antimicrob. Agents Chemother. 34, 436-441, 1990). The percentage of protection was calculated with the formula [(a-b/c-b)×100], in which a=the A595 of drug-treated, virus-infected well, b=A595 of no-drug infected wells, and c=A595 of no-drug, uninfected wells.

[2] = system: CEM, a Human T-type lymphoblast tumor cell line; experiment: Cell growth inhibition of CEM cells by D-nucleosides with or without L-nucleosides
Description: CEM, a Human T-type lymphoblast tumor cell line was used for this study. […] At the end of four days after the addition of the drug, the cell number was estimated by hemocytometer. […] The data, presented below in Table 1-3, are normalized against the control. The parenthetical values represent the expected effect the combined agents should have on cell growth.

[3] = system: HIV-1IIIB; experiment: Anti-HIV combination of D- and L-nucleosides in HIV-1IIIB infected MT-2 cells (isobolograms); conditions: for Nature of the anti-HIV combination effect with L-nucleosides (ID50): D-nucleoside co-administered with β-L-FddC, L(-)FTC, L(-)SddC or β-L-Fd4C; for Effect of L-nucleoside on ID50 of co-administered D-nucleoside: with AZT, D4T, ddC or DDI
Experimental: as §1, §2
Isobolograms (FIGS. 1-2) were plotted as the percent change in the ID50 of β-L-FddC (L(-)FddC), L(-)FTC, L(-)SddC (FIGS. 1 and 2) β-L-Fd4C (L(-)Fd4C) at various concentrations in combination with AZT, D4T, ddC or DDI at varying concentations on the x-axis and vice versa on the y-axis. Isobolograms (FIG. 3) were plotted as the percent change in the ID50 of β-L-Fd4C (L(-)Fd4C) at various concentrations in combination with AZT or D4T at varying concentrations on the x-axis and vice-versa on the y-axis.

[4] = 50 uM, in combination with 1 uM 3TC
[5] = 50 uM, in combination with 1 uM (-) FTC
[6] = 50 uM, in combination with 1 uM β-L-FddC
[7] = Homo sapiens, CCRF-CEM, 96 h, single agent, 50 uM, day 4, read-out: Day 4 Cell Growth - % of Control
[8] = MT-2 cells, HIV-1IIIB, MOI 0.1 TCID50 per cell, 5 days, read-out: ID50 (the source's name)

SMILES: Cc1cn([C@H]2C[C@H](N=[N+]=[N-])[C@@H](CO)O2)c(=O)[nH]c1=O [AZT, 3'-azido-3'deoxythymidine]
- IC50 ([1]; read-out: ID50): 90 nM
- Day 4 Cell Growth - % of Control ([2]; 0.5 uM, in combination with 1 uM 3TC): 83 % of Control
- Day 4 Cell Growth - % of Control ([2]; 0.5 uM, in combination with 1 uM (-) FTC): 87 % of Control
- Day 4 Cell Growth - % of Control ([2]; 0.5 uM, in combination with 1 uM β-L-FddC): 80 % of Control
- Day 4 Cell Growth - % of Control ([2]; 5.0 uM, in combination with 1 uM 3TC): 76 % of Control
- Day 4 Cell Growth - % of Control ([2]; 5.0 uM, in combination with 1 uM (-) FTC): 83 % of Control
- Day 4 Cell Growth - % of Control ([2]; 5.0 uM, in combination with 1 uM β-L-FddC): 79 % of Control
- Day 4 Cell Growth - % of Control [2, 4]: 70 % of Control
- Day 4 Cell Growth - % of Control [2, 5]: 64 % of Control
- Day 4 Cell Growth - % of Control [2, 6]: 75 % of Control
- activity at 0.5 µM ([2]; Homo sapiens, CCRF-CEM, 96 h, single agent, 0.5 uM, day 4, read-out: Day 4 Cell Growth - % of Control): 91%
- activity at 5 µM ([2]; Homo sapiens, CCRF-CEM, 96 h, single agent, 5.0 uM, day 4, read-out: Day 4 Cell Growth - % of Control): 89%
- activity at 50 µM [2, 7]: 74%
- Day 4 Cell Growth - % of Control, expected effect of the combined agents (parenthetical) ([2]; 0.5 uM with 1 uM β-L-FddC): 76 % of Control
- Day 4 Cell Growth - % of Control, expected effect of the combined agents (parenthetical) ([2]; 5.0 uM with 1 uM β-L-FddC): 75 % of Control
- Day 4 Cell Growth - % of Control, expected effect of the combined agents (parenthetical) ([2]; 50 uM with 1 uM β-L-FddC): 62 % of Control
- Day 4 Cell Growth - % of Control ([2]; single agent, 0.5 uM, 5760 min): 82 % of Control and 85 % of Control
- Day 4 Cell Growth - % of Control ([2]; single agent, 5.0 uM, 5760 min): 79 % of Control
- Day 4 Cell Growth - % of Control ([2]; single agent, 50 uM, 5760 min): 72 % of Control
- Nature of the anti-HIV combination effect with L-nucleosides (ID50) [3]: synergistically; also recorded: synergistic

SMILES: Cc1cn([C@H]2C=C[C@@H](CO)O2)c(=O)[nH]c1=O [D4T, β-D-2',3'-didehydro-3'-deoxy-thymidine]
- IC50 ([1]; read-out: ID50): 6000 nM
- Day 4 Cell Growth - % of Control ([2]; 0.3 uM, in combination with 1 uM 3TC): 94 % of Control
- Day 4 Cell Growth - % of Control ([2]; 0.3 uM, in combination with 1 uM (-) FTC): 84 % of Control
- Day 4 Cell Growth - % of Control ([2]; 0.3 uM, in combination with 1 uM β-L-FddC): 86 % of Control
- Day 4 Cell Growth - % of Control ([2]; 3.0 uM, in combination with 1 uM 3TC): 86 % of Control
- Day 4 Cell Growth - % of Control ([2]; 3.0 uM, in combination with 1 uM (-) FTC): 75 % of Control
- Day 4 Cell Growth - % of Control ([2]; 3.0 uM, in combination with 1 uM β-L-FddC): 75 % of Control
- Day 4 Cell Growth - % of Control ([2]; 30 uM, in combination with 1 uM 3TC): 73 % of Control
- Day 4 Cell Growth - % of Control ([2]; 30 uM, in combination with 1 uM (-) FTC): 65 % of Control
- Day 4 Cell Growth - % of Control ([2]; 30 uM, in combination with 1 uM β-L-FddC): 68 % of Control
- activity at 0.3 µM ([2]; Homo sapiens, CCRF-CEM, 96 h, single agent, 0.3 uM, day 4, read-out: Day 4 Cell Growth - % of Control): 98%
- activity at 3 µM ([2]; Homo sapiens, CCRF-CEM, 96 h, single agent, 3.0 uM, day 4, read-out: Day 4 Cell Growth - % of Control): 84%
- activity at 30 µM ([2]; Homo sapiens, CCRF-CEM, 96 h, single agent, 30 uM, day 4, read-out: Day 4 Cell Growth - % of Control): 70%
- Day 4 Cell Growth - % of Control, expected effect of the combined agents (parenthetical) ([2]; 0.3 uM with 1 uM β-L-FddC): 82 % of Control
- Day 4 Cell Growth - % of Control, expected effect of the combined agents (parenthetical) ([2]; 3.0 uM with 1 uM β-L-FddC): 71 % of Control
- Day 4 Cell Growth - % of Control, expected effect of the combined agents (parenthetical) ([2]; 30 uM with 1 uM β-L-FddC): 59 % of Control
- Day 4 Cell Growth - % of Control ([2]; single agent, 0.3 uM, 5760 min): 89 % of Control
- Day 4 Cell Growth - % of Control ([2]; single agent, 3.0 uM, 5760 min): 80 % of Control
- Day 4 Cell Growth - % of Control ([2]; single agent, 30 uM, 5760 min): 65 % of Control and 64 % of Control
- Nature of the anti-HIV combination effect with L-nucleosides (ID50) [3]: synergistically; also recorded: synergistic

SMILES: Nc1ccn([C@@H]2CS[C@H](CO)O2)c(=O)n1 [L(-)SddC, β-L-2',3'-dideoxy-3'-thiacytidine]
- IC50 ([1]; MT-2 cells, HIV-1IIIB, MOI 0.1 TCID50 per cell, 5 days, unit inferred, read-out: ID50 (the source's name)): 3000 nM
- activity at 0.1 µM ([2]; Homo sapiens, CCRF-CEM, 96 h, single agent, 0.1 uM, day 4, read-out: Day 4 Cell Growth - % of Control): 94%
- activity at 1 µM ([2]; Homo sapiens, CCRF-CEM, 96 h, single agent, 1.0 uM, day 4, read-out: Day 4 Cell Growth - % of Control): 89%
- activity at 10 µM ([2]; Homo sapiens, CCRF-CEM, 96 h, single agent, 10 uM, day 4, read-out: Day 4 Cell Growth - % of Control): 80%
- activity at 50 µM [2, 7]: 76%
- Effect of L-nucleoside on ID50 of co-administered D-nucleoside [3]: reduces the ID50 value of AZT, ddC, DDI and D4T; also recorded: decreases the ID50 of a co-administered D-nucleoside and vice versa

Second part, led by results:

- IC50 [1, 8]: 20000 nM
SMILES: O=c1[nH]cnc2c1ncn2C1CCC(CO)O1 [DDI, β-D-2',3'-dideoxyinosine]
- Day 4 Cell Growth - % of Control [2, 4]: 89 % of Control
- Day 4 Cell Growth - % of Control [2, 5]: 84 % of Control
- Day 4 Cell Growth - % of Control [2, 6]: 84 % of Control
- Day 4 Cell Growth - % of Control ([2]; 100 uM, in combination with 1 uM 3TC): 87 % of Control
- Day 4 Cell Growth - % of Control ([2]; 100 uM, in combination with 1 uM (-) FTC): 80 % of Control
- Day 4 Cell Growth - % of Control ([2]; 100 uM, in combination with 1 uM β-L-FddC): 80 % of Control
- Day 4 Cell Growth - % of Control ([2]; 200 uM, in combination with 1 uM 3TC): 80 % of Control
- Day 4 Cell Growth - % of Control ([2]; 200 uM, in combination with 1 uM (-) FTC): 75 % of Control
- Day 4 Cell Growth - % of Control ([2]; 200 uM, in combination with 1 uM β-L-FddC): 75 % of Control
- activity at 50 µM [2, 7]: 88%
- activity at 100 µM ([2]; Homo sapiens, CCRF-CEM, 96 h, single agent, 100 uM, day 4, read-out: Day 4 Cell Growth - % of Control): 85%
- activity at 200 µM ([2]; Homo sapiens, CCRF-CEM, 96 h, single agent, 200 uM, day 4, read-out: Day 4 Cell Growth - % of Control): 78%
- Day 4 Cell Growth - % of Control, expected effect of the combined agents (parenthetical) ([2]; 50 uM with 1 uM (-) FTC): 74 % of Control
- Day 4 Cell Growth - % of Control, expected effect of the combined agents (parenthetical) ([2]; 50 uM with 1 uM β-L-FddC): 74 % of Control
- Day 4 Cell Growth - % of Control, expected effect of the combined agents (parenthetical) ([2]; 100 uM with 1 uM (-) FTC): 71 % of Control
- Day 4 Cell Growth - % of Control, expected effect of the combined agents (parenthetical) ([2]; 100 uM with 1 uM β-L-FddC): 71 % of Control
- Day 4 Cell Growth - % of Control, expected effect of the combined agents (parenthetical) ([2]; 200 uM with 1 uM (-) FTC): 65 % of Control
- Day 4 Cell Growth - % of Control, expected effect of the combined agents (parenthetical) ([2]; 200 uM with 1 uM β-L-FddC): 65 % of Control
- Day 4 Cell Growth - % of Control ([2]; single agent, 50 uM, 5760 min): 94 % of Control
- Day 4 Cell Growth - % of Control ([2]; single agent, 100 uM, 5760 min): 89 % of Control
- Day 4 Cell Growth - % of Control ([2]; single agent, 200 uM, 5760 min): 79 % of Control
- Nature of the anti-HIV combination effect with L-nucleosides (ID50) [3]: additively; also recorded: additive

- IC50 [1, 8]: 90 nM
SMILES: Nc1nc(=O)n([C@@H]2C=C[C@H](CO)O2)cc1F [β-L-Fd4C, β-L-5-fluoro-2',3'-dideoxy-2',3'-didehydrocytidine]
- Effect of L-nucleoside on ID50 of co-administered D-nucleoside [3]: reduces the ID50 value of AZT, ddC, DDI and D4T; also recorded: decreases the ID50 of a co-administered D-nucleoside and vice versa
